Measurements reported in US20150105252A1, “SUBSTITUTED PYRAZOLES AS HERBICIDES” (E I DU PONT DE NEMOURS AND COMPANY, priority 2013, published 2015).

How the values were obtained:
[1] = tested on: deadnettle; test: Test D postemergence; format: in vivo, Lamium amplexicaule; conditions: scale 0 to 100
Source text: (§1) Seeds of plant species selected from bluegrass (annual bluegrass, Poa annua), blackgrass (Alopecurus myosuroides), canarygrass (littleseed canarygrass, Phalaris minor), chickweed (common chickweed, Stellaria media), galium (catchweed bedstraw, Galium aparine), bromegrass, downy (downy bromegrass, Bromus tectorum), field poppy (Papaver rhoeas), field violet (Viola arvensis), foxtail, green (green foxtail, Setaria viridis), deadnettle (henbit deadnettle, Lamium amplexicaule), ryegrass, Italian (Italian ryegrass, Lolium multiflorum), kochia (Kochia scoparia), lambsquarters (Chenopodium album), oilseed rape (Brassica napus), pigweed (redroot pigweed, Amaranthus retroflexus), chamomile (scentless chamomile, Matricaria inodora), speedwell (bird's-eye speedwell, Veronica persica), barley, spring (spring barley, Hordeum vulgare), wheat, spring (spring wheat, Triticum aestivum), buckwheat, wild (wild buckwheat, Polygonum convolvulus), mustard, wild (wild mustard, Sinapis arvensis), oat, wild (wild oat, Avena fatua), radish, wild (wild radish, Raphanus raphanistrum), windgrass (Apera spica-venti), Russian thistle (Salsola kali), barley, winter (winter barley, Hordeum vulgare), and wheat, winter (winter wheat, Triticum aestivum) were planted into a silt loam soil and treated preemergence with test chemicals formulated in a non-phytotoxic solvent mixture which included a surfactant.
(§2) At the same time, these species were planted in pots containing Redi-Earth® planting medium (Scotts Company, 14111 Scottslawn Road, Marysville, Ohio 43041) comprising spaghnum peat moss, vermiculite, wetting agent and starter nutrients and treated with postemergence applications of the test chemicals formulated in the same manner. Plants ranged in height from 2 to 18 cm (1- to 4-leaf stage). Treated plants and controls were maintained in a controlled growth environment for 14 to 21 days after which time all species were compared to controls and visually evaluated. Plant response ratings, summarized in Table D, are based on a scale of 0 to 100 where 0 is no effect and 100 is complete control. A dash (-) response means no test result.

[2] = tested on: green foxtail; test: Test F preemergence; format: in vivo, Setaria viridis
How it was run: (§3)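 Visual rating 0–100 vs untreated controls (0 = no effect, 100 = complete control) after 14–21 d greenhouse. Pre: seeds in silt loam soil. Post: plants 2–18 cm, 1–4 leaf. Formulation: non-phytotoxic solvent mix + surfactant.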

[3] = tested on: wheat, winter; test: Test D preemergence; format: in vivo, Triticum aestivum; conditions: scale 0 to 100
Source text: as §1, §2

[4] = tested on: wheat, spring; test: Test D preemergence; format: in vivo, Triticum aestivum; conditions: scale 0 to 100
Source text: as §1, §2

[5] = tested on: kochia; test: Test D postemergence; format: in vivo, Kochia scoparia; conditions: scale 0 to 100
How it was run: (§4)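 Visual injury scored 0–100 (0 none, 100 complete control) against controls 14–21 days after treatment in a controlled growth environment. Chemicals were formulated in a non-phytotoxic solvent mixture containing surfactant, applied to silt loam soil preemergence or to 1- to 4-leaf plants postemergence.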

[6] = tested on: yellow nutsedge; test: Test F preemergence; format: in vivo, Cyperus esculentus
Source text: (§5) Seeds of plant species selected from corn (Zea mays), soybean (Glycine max), velvetleaf (Abutilon theophrasti), lambsquarters (Chenopodium album), wild poinsettia (Euphorbia heterophylla), pigweed, palmer (palmer pigweed, Amaranthus palmeri), common waterhemp (Amaranthus rudis), surinam grass (Brachiaria decumbens), large crabgrass (Digitaria sanguinalis), crabgrass, Brazil (Brazilian crabgrass, Digitaria horizontalis), fall panicum (Panicum dichotomiflorum), giant foxtail (Setaria faberii), green foxtail (Setaria viridis), goosegrass (Eleusine indica), johnsongrass (Sorghum halepense), common ragweed (Ambrosia elation), barnyardgrass (Echinochloa crus-galli), southern sandbur (Cenchrus echinatus), arrowleaf sida (Sida rhombifolia), Italian ryegrass (Lolium multiflorum), dayflower, VA (Virginia (VA) dayflower, Commelina virginica), field bindweed (Convolvulus arvensis), cocklebur (common cocklebur, Xanthium strumarium), morningglory (Ipomoea coccinea), nightshade (eastern black nightshade, Solanum ptycanthum), kochia (Kochia scoparia), yellow nutsedge (Cyperus esculentus), and hairy beggarticks (Bidens pilosa), were planted into a silt loam soil and treated preemergence with test chemicals formulated in a non-phytotoxic solvent mixture which included a surfactant.
(§6) At the same time, plants from these crop and weed species and also horseweed (Canada horseweed, Conyza canadensis), smartweed (ladysthumb smartweed, Polygonum persicaria), waterhemp_RES1, (ALS & Triazine resistant common waterhemp, Amaranthus rudis), and waterhemp_RES2, (ALS & HPPD resistant common waterhemp, Amaranthus rudis) were treated with postemergence applications of test chemicals formulated in the same manner. Plants ranged in height from 2 to 18 cm for postemergence treatments (1- to 4-leaf stage). Treated plants and controls were maintained in a greenhouse for 14 to 21 days, after which time all species were compared to controls and visually evaluated. Plant response ratings, summarized in Table F, are based on a scale of 0 to 100 where 0 is no effect and 100 is complete control. A dash (-) response means no test result.

[7] = tested on: giant foxtail; test: Test F preemergence; format: in vivo, Setaria faberii
Source text: as §5, §6

[8] = tested on: common waterhemp; test: Test F preemergence; format: in vivo, Amaranthus rudis
How it was run: as §3

[9] = tested on: bluegrass; test: Test D postemergence; format: in vivo, Poa annua; conditions: scale 0 to 100
Source text: as §1, §2

[10] = tested on: Surinam grass; test: Test F preemergence; format: in vivo, Brachiaria decumbens
How it was run: as §3

[11] = tested on: field poppy; test: Test D postemergence; format: in vivo, Papaver rhoeas; conditions: scale 0 to 100
How it was run: as §4

[12] = tested on: field bindweed; test: Test F preemergence; format: in vivo, Convolvulus arvensis
How it was run: as §3

[13] = tested on: windgrass; test: Test D preemergence; format: in vivo, Apera spica-venti; conditions: scale 0 to 100
Source text: as §1, §2

[14] = tested on: chickweed; test: Test D preemergence; format: in vivo, Stellaria media; conditions: scale 0 to 100
Source text: as §1, §2

[15] = Preemergence, 31 g ai/ha, scale 0 to 100
[16] = Preemergence, 62 g ai/ha, scale 0 to 100
[17] = Preemergence, 125 g ai/ha, scale 0 to 100
[18] = preemergence, 8 g ai/ha, scale 0 to 100, 100 is complete control
[19] = preemergence, 16 g ai/ha, scale 0 to 100, 100 is complete control

CCc1cc(C(=O)NCC(F)(F)F)nn1Cc1ccnc(C(F)(F)F)c1 [Compound 78, 5-ethyl-N-(2,2,2-trifluoroethyl)-1-[[(2-trifluoromethyl)-4-pyridinyl]methyl]-1H-pyrazole-3-carboxamide]
90: Plant response rating, Yellow Nutsedge [6, 17] | Plant response rating, Field Bindweed [12, 16] | Plant response rating, Windgrass ([13]; 31 g ai/ha)
35: Deadnettle plant response rating ([1]; Postemergence, 125 g ai/ha)
85: Field Poppy plant response rating ([11]; Postemergence, 250 g ai/ha)
70: Plant response rating, Yellow Nutsedge [6, 16] | Field Poppy plant response rating ([11]; Postemergence, 125 g ai/ha)
95: Plant response rating, Wheat, Winter ([3]; 250 g ai/ha) | Plant response rating, Field Bindweed [12, 17]
50: Plant response rating, Wheat, Winter ([3]; 62 g ai/ha) | Plant response rating, Giant Foxtail [7, 19] | Plant response rating, Surinam Grass [10, 15]
80: Plant response rating, Wheat, Winter ([3]; 125 g ai/ha) | Plant response rating, Wheat, Spring ([4]; 125 g ai/ha) | Kochia plant response rating ([5]; Postemergence, 125 g ai/ha) | Kochia plant response rating ([5]; postemergence, 62 g ai/ha)
5: Plant response rating, Wheat, Spring ([4]; 31 g ai/ha) | Plant response rating, Giant Foxtail [7, 18]
30: Bluegrass plant response rating ([9]; Postemergence, 250 g ai/ha)
100: Plant response rating, Green Foxtail [2, 16] | Plant response rating, Green Foxtail [2, 17] | Plant response rating, Wheat, Spring ([4]; 250 g ai/ha) | Plant response rating, Giant Foxtail [7, 15] | Plant response rating, Giant Foxtail [7, 16] | Plant response rating, Giant Foxtail [7, 17] | Plant response rating, Common Waterhemp [8, 15] | Plant response rating, Common Waterhemp [8, 16] | Plant response rating, Common Waterhemp [8, 17] | Plant response rating, Common Waterhemp [8, 19] | Plant response rating, Surinam Grass [10, 17] | Plant response rating, Field Bindweed [12, 15] | Plant response rating, Windgrass ([13]; 62 g ai/ha) | Plant response rating, Windgrass ([13]; 125 g ai/ha) | Plant response rating, Windgrass ([13]; 250 g ai/ha) | Plant response rating, Chickweed ([14]; 31 g ai/ha) | Plant response rating, Chickweed ([14]; 62 g ai/ha) | Plant response rating, Chickweed ([14]; 125 g ai/ha) | Plant response rating, Chickweed ([14]; 250 g ai/ha)
0: Plant response rating, Yellow Nutsedge [6, 18] | Plant response rating, Yellow Nutsedge [6, 19] | Plant response rating, Field Bindweed [12, 18] | Plant response rating, Field Bindweed [12, 19]
65: Plant response rating, Common Waterhemp [8, 18] | Field Poppy plant response rating ([11]; postemergence, 62 g ai/ha)
20: Deadnettle plant response rating ([1]; postemergence, 62 g ai/ha) | Plant response rating, Yellow Nutsedge [6, 15] | Plant response rating, Surinam Grass [10, 18] | Plant response rating, Surinam Grass [10, 19]
60: Deadnettle plant response rating ([1]; Postemergence, 250 g ai/ha) | Plant response rating, Green Foxtail [2, 15] | Plant response rating, Green Foxtail [2, 19]
55: Plant response rating, Wheat, Spring ([4]; 62 g ai/ha) | Field Poppy plant response rating ([11]; Postemergence, 31 g ai/ha)
10: Plant response rating, Green Foxtail [2, 18] | Bluegrass plant response rating ([9]; Postemergence, 31 g ai/ha) | Bluegrass plant response rating ([9]; postemergence, 62 g ai/ha)
15: Deadnettle plant response rating ([1]; Postemergence, 31 g ai/ha) | Plant response rating, Wheat, Winter ([3]; 31 g ai/ha) | Bluegrass plant response rating ([9]; Postemergence, 125 g ai/ha)
75: Kochia plant response rating ([5]; Postemergence, 31 g ai/ha) | Kochia plant response rating ([5]; Postemergence, 250 g ai/ha) | Plant response rating, Surinam Grass [10, 16]

CCCc1cc(C(=O)NCC(F)(F)F)nn1Cc1ccnc(C(F)(F)F)c1 [Compound 105]
25: Plant response rating, Green Foxtail [2, 19] | Plant response rating, Yellow Nutsedge [6, 15] | Plant response rating, Yellow Nutsedge [6, 16]
95: Field Poppy plant response rating ([11]; Postemergence, 250 g ai/ha) | Plant response rating, Chickweed ([14]; 31 g ai/ha)
35: Plant response rating, Wheat, Winter ([3]; 62 g ai/ha) | Plant response rating, Surinam Grass [10, 16]
20: Deadnettle plant response rating ([1]; postemergence, 62 g ai/ha)
80: Kochia plant response rating ([5]; Postemergence, 125 g ai/ha) | Kochia plant response rating ([5]; Postemergence, 250 g ai/ha) | Field Poppy plant response rating ([11]; Postemergence, 125 g ai/ha) | Field Poppy plant response rating ([11]; postemergence, 62 g ai/ha)
55: Deadnettle plant response rating ([1]; Postemergence, 125 g ai/ha)
100: Plant response rating, Green Foxtail [2, 16] | Plant response rating, Green Foxtail [2, 17] | Plant response rating, Wheat, Spring ([4]; 250 g ai/ha) | Plant response rating, Giant Foxtail [7, 15] | Plant response rating, Giant Foxtail [7, 16] | Plant response rating, Giant Foxtail [7, 17] | Plant response rating, Common Waterhemp [8, 15] | Plant response rating, Common Waterhemp [8, 16] | Plant response rating, Common Waterhemp [8, 17] | Plant response rating, Common Waterhemp [8, 19] | Plant response rating, Field Bindweed [12, 17] | Plant response rating, Windgrass ([13]; 62 g ai/ha) | Plant response rating, Windgrass ([13]; 125 g ai/ha) | Plant response rating, Windgrass ([13]; 250 g ai/ha) | Plant response rating, Chickweed ([14]; 62 g ai/ha) | Plant response rating, Chickweed ([14]; 125 g ai/ha) | Plant response rating, Chickweed ([14]; 250 g ai/ha)
70: Bluegrass plant response rating ([9]; Postemergence, 250 g ai/ha)
75: Plant response rating, Green Foxtail [2, 15] | Plant response rating, Wheat, Winter ([3]; 125 g ai/ha) | Plant response rating, Wheat, Spring ([4]; 125 g ai/ha) | Kochia plant response rating ([5]; Postemergence, 31 g ai/ha) | Kochia plant response rating ([5]; postemergence, 62 g ai/ha) | Plant response rating, Common Waterhemp [8, 18] | Plant response rating, Field Bindweed [12, 15] | Plant response rating, Windgrass ([13]; 31 g ai/ha)
90: Plant response rating, Wheat, Winter ([3]; 250 g ai/ha)
15: Deadnettle plant response rating ([1]; Postemergence, 31 g ai/ha) | Plant response rating, Wheat, Winter ([3]; 31 g ai/ha) | Bluegrass plant response rating ([9]; Postemergence, 31 g ai/ha) | Bluegrass plant response rating ([9]; postemergence, 62 g ai/ha)
60: Deadnettle plant response rating ([1]; Postemergence, 250 g ai/ha)
10: Plant response rating, Wheat, Spring ([4]; 31 g ai/ha) | Plant response rating, Giant Foxtail [7, 18] | Plant response rating, Surinam Grass [10, 15] | Plant response rating, Surinam Grass [10, 19] | Plant response rating, Field Bindweed [12, 19]
40: Plant response rating, Wheat, Spring ([4]; 62 g ai/ha) | Bluegrass plant response rating ([9]; Postemergence, 125 g ai/ha) | Plant response rating, Surinam Grass [10, 17] | Plant response rating, Field Bindweed [12, 16]
65: Plant response rating, Yellow Nutsedge [6, 17] | Plant response rating, Giant Foxtail [7, 19] | Field Poppy plant response rating ([11]; Postemergence, 31 g ai/ha)
0: Plant response rating, Green Foxtail [2, 18] | Plant response rating, Yellow Nutsedge [6, 18] | Plant response rating, Yellow Nutsedge [6, 19] | Plant response rating, Surinam Grass [10, 18] | Plant response rating, Field Bindweed [12, 18]
